Laboratory results taken from US12714715B2, “Agent for treating myopia, preventing myopia and/or suppressing myopia progression” (SANTEN PHARMACEUTICAL CO., LTD., priority 2020, dated 2026).

What was measured:
[1] = system: guinea pig myopia model; assay: Test on suppression of myopia progression (axial length elongation and refractive error) in guinea pig myopia model; assay type: in vivo, guinea pig (Slc:Hartley); conditions: for Difference of axial lengths / Difference of refraction: 10 μL topical to goggled right eye once daily 14 days, right eye − left eye, average n=6; for Difference of axial lengths / Difference of refraction / Suppression rate of axial length elongation / Suppression rate of refractive error: day 14; for Suppression rate of axial length elongation / Suppression rate of refractive error: vs vehicle control group
Protocol: According to the following procedures, the effect of AFDX0250 on the suppression of myopia progression (the axial length elongation and the refractive error) was evaluated.
AFDX0250 was dissolved in purified water with a buffering agent and a tonicity agent to prepare 0.5% AFDX0250 solution. 1 mol/L sodium hydroxide reagent solution or dilute hydrochloric acid was added to the solution to adjust the pH thereof to neutral. Also, a buffering agent and a tonicity agent were dissolved in purified water to prepare a neutral vehicle. 9.8 mL of the vehicle was mixed with 0.2 mL of 0.5% AFDX0250 solution and stirred to prepare 0.01% AFDX0250 solution. 3 mL, 4 mL and 4.5 mL of the vehicles were mixed with 2 mL, 1 mL and 0.5 mL of 0.01% AFDX0250 solutions, respectively, and stirred to prepare 0.004%, 0.002% and 0.001% AFDX0250 solutions.
A test tube with a diameter of 18 mm was cut off at the level of 10 mm from the bottom, and the cut-off bottom part was glued to one side of Velcro tape (about 20 mm square) with a hole of an appropriate diameter in the center with an adhesive agent to prepare a lens (goggle). 3-week-old guinea pigs (Slc:Hartley) (n=30) were obtained, and the prepared goggle was covered to the right eye of each guinea pig with an adhesive agent to induce myopia to the guinea pigs. The left eye thereof without goggle was used as control.
The […] group, 0.004% AFDX0250 solution administration group, […] group (control group) (n=6 per group). In the AFDX0250 solution administration groups, 10 μL of the AFDX0250 solution in each concentration was topically administered to the right eye of each guinea pig once daily for 14 days from the day when the right eye was covered with the goggle (day 0) to day 13. In the control group, 10 μL of the vehicle was topically administered to the right eye of each guinea pig once daily for 14 days from the day when the right eye was covered with the goggle (day 0) to day 13. In the all groups, 10 μL of the vehicle was topically administered to the left eye at the same frequency of administration as that of each group daily for 14 days from day 0 to day 13. The guinea pigs were reared under a normal rearing condition.
On day 14 from the myopia induction, the axial lengths of right and left eyeballs were measured with an ultrasound axial length measurement device ECHOSCAN US-500 (A-scan) (NIDEK CO., LTD.), and the refractions were measured with the auto refractometer AR-1a (NIDEK CO., LTD.). The difference of axial lengths and the suppression rate of the axial length elongation as well as the difference of refraction and the suppression rate of the refractive error were calculated according to the following formulae. The calculation was performed in Microsoft Excel. Difference of axial lengths (mm)=Axial length of right eye (mm)−Axial length of left eye (mm) Suppression rate of axial length elongation (%)=(1−Difference of axial lengths in AFDX0250 solution administration group/Difference of axial lengths in control group)×100 (Formula) Difference of refraction (D)=Refraction of right eye (D)−Refraction of left eye (D) Suppression rate of refractive error (%)=(1−Difference of refraction in AFDX0250 solution administration group/Difference of refraction in control group)×100 (Formula) (Test Result)
AFDX0250 was dissolved in purified water with a buffering agent and a tonicity agent to prepare 0.5% AFDX0250 solution. 1 mol/L sodium hydroxide reagent solution or dilute hydrochloric acid was added to the solution to adjust the pH thereof to neutral. Also, a buffering agent and a tonicity agent were dissolved in purified water to prepare a neutral vehicle. 4 mL and 4.8 mL of vehicles were mixed with 1 mL and 0.2 mL of 0.5% AFDX0250 solutions, respectively, and stirred to prepare 0.1% and 0.02% of AFDX0250 solutions. Also, 4 mL of the vehicle was mixed with 1 mL of 0.02% AFDX0250 solution and stirred to prepare 0.004% AFDX0250 solution. […]

[2] = system: guinea pigs; assay: Evaluation of mydriatic action (pupil diameter, pupillary light reflex) after repeated topical administration to one eye; assay type: in vivo, guinea pig; conditions: guinea pig, in vivo
Protocol: An atropine solution was repeatedly topically administered to one eye of a guinea pig to evaluate the effect of the solution on mydriasis.
Atropine sulfate hydrate and glycerin were dissolved in water for injection to prepare 0.001%, 0.0003% and 0.0001% atropine solutions without adjusting the pH.
Each of the prepared solutions was topically administered to the left eye of guinea pigs (the left eyes of 3 guinea pigs for each solution) in a volume of 10 μL once daily for 5 days. The pupil diameter of each guinea pig was measured before the administration on day 5 as well as 1, 2 and 4 hours after the administration to observe the pupillary light reflex. The measured pupil diameters of each guinea pig at each measurement time were averaged to obtain the average value. The obtained average value was defined as the average pupil diameter. Among each average pupil diameter at each measurement time, the longest diameter was defined as the maximum pupil diameter.

[3] = Comparative Example 1, 0.004% solution
[4] = Comparative Example 1, 0.004% solution, topical once daily 14 days
[5] = Comparative Example 1, 0.02% solution
[6] = Comparative Example 1, 0.02% solution, topical once daily 14 days
[7] = Comparative Example 1, 0.1% solution
[8] = Comparative Example 1, 0.1% solution, topical once daily 14 days
[9] = Comparative Example 1, 0.5% solution
[10] = Comparative Example 1, 0.5% solution, topical once daily 14 days
[11] = Comparative Example 2, 0.004% solution
[12] = Comparative Example 2, 0.004% solution, topical once daily 14 days
[13] = Comparative Example 2, 0.01% solution
[14] = Comparative Example 2, 0.01% solution, topical once daily 14 days
[15] = Comparative Example 2, 0.02% solution
[16] = Comparative Example 2, 0.02% solution, topical once daily 14 days
[17] = Comparative Example 2, 0.1% solution
[18] = Comparative Example 2, 0.1% solution, topical once daily 14 days

Structure (SMILES): CCN(CC)CC1CCCCN1CC(=O)N1c2ccccc2C(=O)Nc2cccnc21 (stereo not drawn) [AFDX0116, 11-[2-[2-[(diethylamino)methyl]-1-piperidinyl]acetyl]-5,11-dihydro-6H-pyrido[2,3-b][1,4]benzodiazepin-6-one]
- Difference of axial lengths [1, 3]: 0.19 mm
- Difference of refraction [1, 3]: −4.74 D
- Suppression rate of axial length elongation [1, 4]: 21.14%
- Suppression rate of refractive error [1, 4]: 45.54%
- Difference of axial lengths [1, 5]: 0.09 mm
- Difference of refraction [1, 5]: −2.17 D
- Suppression rate of axial length elongation [1, 6]: 62.95%
- Suppression rate of refractive error [1, 6]: 73.10%
- Difference of axial lengths [1, 7]: 0.09 mm
- Difference of refraction [1, 7]: −1.90 D
- Suppression rate of axial length elongation [1, 8]: 63.86%
- Suppression rate of refractive error [1, 8]: 73.17%
- Difference of axial lengths [1, 9]: 0.03 mm
- Difference of refraction [1, 9]: −2.10 D
- Suppression rate of axial length elongation [1, 10]: 87.73%
- Suppression rate of refractive error [1, 10]: 75.86%
- Difference of axial lengths [1, 11]: 0.12 mm
- Difference of refraction [1, 11]: −6.59 D
- Suppression rate of axial length elongation [1, 12]: 22.52%
- Suppression rate of refractive error [1, 12]: 9.96%
- Difference of axial lengths [1, 13]: 0.12 mm
- Difference of refraction [1, 13]: −3.61 D
- Suppression rate of axial length elongation [1, 14]: 21.44%
- Suppression rate of refractive error [1, 14]: 50.71%
- Difference of axial lengths [1, 15]: 0.05 mm
- Difference of refraction [1, 15]: −2.52 D
- Suppression rate of axial length elongation [1, 16]: 69.73%
- Suppression rate of refractive error [1, 16]: 65.61%
- Difference of axial lengths [1, 17]: 0.05 mm
- Difference of refraction [1, 17]: −2.42 D
- Suppression rate of axial length elongation [1, 18]: 68.65%
- Suppression rate of refractive error [1, 18]: 66.87%
- Concentration showing the anti-myopic effect (comparison in words) ([1]; Comparative Examples 1 and 2 compared with Examples 1 and 2): higher than that of AFDX0250
- Effect on the axial length elongation and the refractive error (summary in words) ([1]; summary of Examples 1 and 2 (AFDX0250) and Comparative Examples 1 and 2 (AFDX0116), topical once daily 14 days): suppressed the axial length elongation and the refractive error
- Mydriatic action (pupil diameter and pupillary light reflex, in words) [2]: increased the pupil diameter and decreased the pupillary light reflex
- Measurement time of maximum pupil diameter ([2]; 5 days): 2 h
